{"source": "patent US20070154567A1", "about": "“Use of mercury to treat cancer” (priority 2006, published 2007)", "origin": "cited, not measured here", "test_system": "mammary and sarcoma tumor growth in seeded wounds", "conditions": "0.2% w/v solution administered to the wound site, mice; cited from earlier work"}
{"smiles": "[Cl][Hg][Cl]", "note": "[mercuric chloride]", "values": [{"measurement": "mammary and sarcoma tumor growth in seeded wounds", "result": "reduce"}]}
